# Experimental data taken from patent US20130004053A1, “System and method for automatic color segmentation and minimum significant response for measurement of fractional localized intensity of cellular compartments” (Vala Sciences, Inc., priority 2002, published 2013).
# What was measured:
# [1] = system: NFκB p65 cytoplasm-to-nucleus translocation in HUVEC cells; test: TNFα-induced NFκB cytoplasm-nucleus translocation in HUVEC (FLIN); assay type: cell-based, human
# Experimental: The cells used in these studies were primary human umbilical vein endothelial cells (HUVEC) obtained from Clonetics Corporation. The cells were maintained in culture under standard conditions and passaged using Clonetics' proprietary EGM medium and reagent system. Since they are not transformed, HUVECs, generally become senescent after nine or ten passages.
# Prior to assay, cells were transferred to 96-well plates (Packard black ViewPlate) and incubated overnight to yield cell monolayers that were approximately 25% confluent. Plates used to determine a statistically optimal cell density for the assay were made by seeding wells at 5000, 2500, and 1000 cells per well and incubating overnight. […] Translocation of NFκB from the cytoplasm to the nucleus was assessed by visual examination of sample wells with a confocal microscope system. […]
# Fractional Localized Intensity Measurements on TNFα-induced NFκB Cytoplasm-Nucleus Translocation: Immunofluorescent staining of the NFκB p65 regulatory subunit allows for easy characterization of the intercellular NFκB distribution by visual inspection of images acquired during scanning. The majority of fluorescence lies outside the nuclear area in unstimulated cells, while a substantial amount co-locates with the nuclear mask subsequent to maximal stimulation with TNFα (FIG. 11). […]
# [2] = system: NFκB p65 cytoplasm-to-nucleus translocation in HUVEC cells; settings: previous reports [Ding et al.]; cited from earlier work
substance,measurement,setting,value
tumor necrosis factor α [TNFα],"translocation of labeled NFκB, average","[1]; 200 U/ml TNFα, 15 m, average over cellular densities",18.80%
same,gross p65 translocated upon maximal stimulation,[1]; maximal stimulation,≈ 20%
same,"fraction of p65 to translocate on stimulus, of gross amount in unstimulated cell cytoplasm",[2],20%
